Patent publication US8912120B2, “Herbicidal compositions comprising 4-amino-3-chloro-5-fluoro-6-(4-chloro-2-fluoro-3-methoxyphenyl) pyridine-2-carboxylic acid or a derivative thereof and synthetic auxin herbicides” (Dow AgroSciences, LLC., priority 2012, dated 2014)

Assays:
FIMMI = assay: Example II: in-water applied herbicidal mixtures, transplanted paddy rice, FIMMI; format: in vivo, Fimbristylis miliacea (globe fringerush); conditions: 22 DAA; 10.6 gae/ha
Experimental: The prepared mud was dispensed in 365 mL aliquots into 16-ounce (oz.) non-perforated plastic pots with a surface area of 86.59 square centimeters (cm^2) leaving a headspace of 3 centimeters (cm) in each pot Mud was allowed to dry overnight prior to planting or transplanting. Rice seeds were planted in Sun Gro MetroMix® 306 planting mixture, which typically has a pH of 6.0 to 6.8 and an organic matter content of about 30 percent, in plastic plug trays. Seedlings at the second or third leaf stage of growth were transplanted into 840 mL of mud contained in 32-oz. non-perforated plastic pots with a surface area of 86.59 cm^2 4 days prior to herbicide application. […] Nutrients were added as Osmocote® (19:6:12, N:P:K^+ minor nutrients) at 2 g per 16-oz. pot and 4 g per 32-oz. pot.
Applications were made by injecting with a pipetter appropriate amounts of the application solutions, individually and sequentially, into the aqueous layer of the paddy. Control plants were treated in the same manner with the solvent blank. Applications were made so that all treated plant material received the same concentrations of acetone and crop oil concentrate.

CIRAR = assay: Example IV: postemergence foliar-applied herbicidal mixtures, cereal crops, CIRAR; format: in vivo, Cirsium arvense (Canada thistle); conditions: alone, 8.75 gai/ha, 20-22 days
Experimental: Seeds of the desired test plant species were planted in Sun Gro MetroMix 306 planting mixture, which typically has a pH of 6.0 to 6.8 and an organic matter content of about 30 percent, in plastic pots with a surface area of 103.2 square centimeters (cm^2). […] The plants were grown for 7-36 days in a greenhouse with an approximate 14 hour photoperiod which was maintained at about 18° C. during the day and 17° C. during the night.
Spray solutions of the second cereal herbicide and experimental compound mixtures were prepared by adding the stock solutions to the appropriate amount of dilution solution to form 12 mL spray solution with active ingredients in two- and three-way combinations.

COc1c(Cl)ccc(-c2nc(C(=O)O)c(Cl)c(N)c2F)c1F [Compound A Acid, 4-amino-3-chloro-6-(4-chloro-2-fluoro-3-methoxyphenyl)-5-fluoropyridine-2-carboxylic acid]
Visual Weed Control (%) Obs (FIMMI): 40%

COc1c(Cl)ccc(-c2nc(C(=O)OCc3ccccc3)c(Cl)c(N)c2F)c1F [Compound A Benzyl Ester, benzyl ester of 4-amino-3-chloro-5-fluoro-6-(4-chloro-2-fluoro-3-methoxy-phenyl)pyridine-2-carboxylic acid]
CIRAR Ob (observed value) (CIRAR): 70%
